Reference: patent US20070219212A1, “Pyranouidole Derivatives and the Use Thereof for the Treatment of Hepatitis C Virus Infection or Disease” (priority 2004, published 2007)
Read-outs that look alike come from different tables or passages of the source.

Tests used:
[1] = target: T1, NS5B from the BK strain (genotype 1b) (Hepatitis C virus genotype 1b, UniProt P26663); assay: Hepatitis C polymerase (NS5B, BK strain) inhibition, radioactive filter assay; type: biochemical; settings: NS5B BK strain (genotype 1b)
T1 construct: NS5B from the BK strain (genotype 1b) is expressed in E coli as a protein in which the 21 C-terminal amino acids are replaced; made in house; host or cells: E. coli
T1 sequence (P26663 2420-2989): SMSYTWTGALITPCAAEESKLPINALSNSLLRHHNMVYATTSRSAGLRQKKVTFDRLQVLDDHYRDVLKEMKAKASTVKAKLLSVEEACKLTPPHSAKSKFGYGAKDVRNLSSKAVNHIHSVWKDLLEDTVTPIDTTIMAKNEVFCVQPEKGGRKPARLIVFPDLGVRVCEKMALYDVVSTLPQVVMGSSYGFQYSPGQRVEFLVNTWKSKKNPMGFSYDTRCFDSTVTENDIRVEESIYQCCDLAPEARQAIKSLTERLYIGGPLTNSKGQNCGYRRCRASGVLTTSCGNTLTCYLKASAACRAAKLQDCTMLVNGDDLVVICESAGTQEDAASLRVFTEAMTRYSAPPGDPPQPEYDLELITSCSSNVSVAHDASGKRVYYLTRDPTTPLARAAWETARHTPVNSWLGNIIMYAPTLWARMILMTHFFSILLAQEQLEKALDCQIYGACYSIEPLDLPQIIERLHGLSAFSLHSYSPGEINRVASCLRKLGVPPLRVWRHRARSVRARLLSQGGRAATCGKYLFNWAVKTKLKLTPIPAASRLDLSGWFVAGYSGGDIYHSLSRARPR
How it was run: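 E. coli-expressed C-terminally truncated His-tagged NS5B preincubated 15 min with compound at room temperature, then run 2 h at 22-25 °C on a hairpin-primed heteropolymeric RNA template (~3 nM) with radioactive nucleotides. EDTA stop; ~760 nt 33P product captured on filters, washed with phosphate buffer pH 7.0, scintillation counted.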

[2] = target: BB7 RNA-dependent RNA polymerase hepatitis C virus protein (Con1 HCV sequence) (Hepatitis C virus genotype 1b, UniProt Q9WMX2); assay: Hepatitis C polymerase (BB7) inhibition; type: biochemical
BB7 RNA-dependent RNA polymerase hepatitis C virus protein (Con1 HCV sequence), sequence (Q9WMX2 2420-3010): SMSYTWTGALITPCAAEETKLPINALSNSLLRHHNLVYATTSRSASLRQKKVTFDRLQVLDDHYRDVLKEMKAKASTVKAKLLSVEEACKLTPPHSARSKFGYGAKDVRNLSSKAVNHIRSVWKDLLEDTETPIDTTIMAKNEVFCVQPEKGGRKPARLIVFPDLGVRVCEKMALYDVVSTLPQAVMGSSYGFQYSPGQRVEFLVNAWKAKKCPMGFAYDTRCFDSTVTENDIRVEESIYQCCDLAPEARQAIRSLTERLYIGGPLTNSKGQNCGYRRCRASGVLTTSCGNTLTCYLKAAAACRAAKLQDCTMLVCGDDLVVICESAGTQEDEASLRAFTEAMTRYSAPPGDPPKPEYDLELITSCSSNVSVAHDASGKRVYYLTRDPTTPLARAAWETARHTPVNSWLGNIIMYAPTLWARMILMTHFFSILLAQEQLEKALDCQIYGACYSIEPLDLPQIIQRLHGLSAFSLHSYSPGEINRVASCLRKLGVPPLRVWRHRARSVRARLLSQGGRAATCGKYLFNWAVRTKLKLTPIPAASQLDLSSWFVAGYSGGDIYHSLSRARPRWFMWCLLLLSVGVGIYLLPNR
How it was run: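 Con1 (BB7) replicon-derived NS5B polymerase preincubated with compound (15% DMSO) 15 min at room temperature, then RNA template (~3 nM pOF) and nucleotides added. Reaction run 2 h at 22-25° C., stopped with EDTA (85 mM final). ^33P-labelled product captured on filters, washed with 0.5 M sodium phosphate pH 7.0, scintillation counted.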

[3] = BB7 (Con1) NS5B, read-out: BB7 IC50

Row | Compound | IC50 [1] | IC50 [2] | IC50 [2, 3]
1 | CCCC1(CC(=O)O)OCCc2c1[nH]c1c(C)c(OCc3noc(C(C)(C)C)n3)cc(C#N)c21 (stereo not shown) [Example 88] | < 500 nM | < 500 nM | –
2 | CCCC1(CC(=O)O)OCCc2c1[nH]c1c(C)c(OCc3csc(C(C)C)n3)cc(C#N)c21 (stereo not shown) [Example 72] | < 500 nM | – | < 500 nM
3 | CCC[C@]1(CC(=O)O)OCCc2c1[nH]c1c(C)c(OCCOC(C)C)cc(C#N)c21 [Example 26, (R)-[5-Cyano-7-(2-isopropoxy-ethoxy)-8-methyl-1-propyl-1,3,4,9-tetrahydro-pyrano[3,4-b]indol-1-yl]-acetic acid] | < 500 nM | < 500 nM | –
4 | CCCC1(CC(=O)O)OCCc2c1[nH]c1c(C)c(OCc3nnc(C)s3)cc(C#N)c21 (stereo not shown) [Example 133] | < 500 nM | < 500 nM | –
5 | CCCC1(CC(=O)O)OCCc2c1[nH]c1c(C)c(OCCN3CCCC3)cc(C#N)c21 (stereo not shown) [Example 58] | 500 to 5000 nM | 500 to 5000 nM | –
6 | CCCC1(CC(=O)O)OCCc2c1[nH]c1c(C)c(OCC3CCS(=O)(=O)CC3)cc(C#N)c21 (stereo not shown) [Example 107] | < 500 nM | < 500 nM | –
7 | CCCC1(CC(=O)O)OCCc2c1[nH]c1c(C)c(OCc3ccnc(C(N)=O)c3)cc(C#N)c21 (stereo not shown) [Example 65] | < 500 nM | < 500 nM | –
8 | CCCC1(CC(=O)O)OCCc2c1[nH]c1c(C)c(OCc3cc(C)n(C)n3)cc(C#N)c21 (stereo not shown) [Example 78] | < 500 nM | < 500 nM | –
9 | CCCC1(CC(=O)O)OCCc2c1[nH]c1c(C)c(OCc3ccnc(C)c3)cc(C#N)c21 (stereo not shown) [Example 52] | < 500 nM | < 500 nM | –
10 | CCCC1(CC(=O)O)OCCc2c1[nH]c1c(C)c(OCC(=O)NC)cc(C#N)c21 (stereo not shown) [Example 103] | < 500 nM | < 500 nM | –
11 | CCCC1(CC(=O)O)OCCc2c1[nH]c1c(C)c(COC)cc(C#N)c21 (stereo not shown) [Example 2, (5-Cyano-7-methoxymethyl-8-methyl-1-propyl-1,3,4,9-tetrahydro-pyrano[3,4-b]indol-1-yl)-acetic acid] | 500 to 5000 nM | < 500 nM | –
12 | CCCC1(CC(=O)O)OCCc2c1[nH]c1c(C)c(OCc3ccnc(NC(C)=O)c3)cc(C#N)c21 (stereo not shown) [Example 93] | < 500 nM | < 500 nM | –
13 | CCCC1(C(=O)O)OCCc2c1[nH]c1c(C)c(OCCOC)cc(C#N)c21 (stereo not shown) [Example 31, 5-Cyano-7-(2-methoxy-ethoxy)-8-methyl-1-propyl-1,3,4,9-tetrahydro-pyrano[3,4,-b]indole-1-carboxylic acid] | 500 to 5000 nM | 500 to 5000 nM | –
14 | (7-Benzyloxymethyl-5-cyano-8-methyl-1-propyl-1,3,4,9-tetrahydro-pyrano[3,4-b]indol-1-yl)-acetic acid [Example 15] | < 500 nM | – | < 500 nM
15 | [5-Cyano-8-methyl-1-propyl-7-(tetrahydro-pyran-4-ylmethoxymethyl)-1,3,4,9-tetrahydro-pyrano[3,4-b]indol-1-yl]-acetic acid [Example 12] | 500 to 5000 nM | – | 500 to 5000 nM
16 | CCC[C@]1(CC(=O)O)OCCc2c1[nH]c1c(C)c(OCc3cc(C)n(C)n3)cc(C#N)c21 [Example 25, (R)-[5-Cyano-7-(1,5-dimethyl-1H-pyrazol-3-ylmethoxy)-8-methyl-1-propyl-1,3,4,9-tetrahydro-pyrano[3,4-b]indol-1-yl]-acetic acid] | < 500 nM | < 500 nM | –
17 | CCCC1(CC(=O)O)OCCc2c1[nH]c1c(C)c(COC(C)C)cc(C#N)c21 (stereo not shown) [Example 5, (5-Cyano-7-isopropoxymethyl-8-methyl-1-propyl-1,3,4,9-tetrahydro-pyrano[3,4-b]indol-1-yl)-acetic acid] | 500 to 5000 nM | < 500 nM | –
18 | CCCC1(CC(=O)O)OCCc2c1[nH]c1c(C)c(OC(C)c3cc(C)n(C)n3)cc(C#N)c21 (stereo not shown) [Example 84] | < 500 nM | – | < 500 nM
19 | CCCC1(CC(=O)O)OCCc2c1[nH]c1c(C)c(OCc3ccnc(C(C)=NOC)c3)cc(C#N)c21 (stereo not shown) [Example 95] | < 500 nM | < 500 nM | –
20 | CCCC1(CC(=O)O)OCCc2c1[nH]c1c(C)c(OCCCSC)cc(C#N)c21 (stereo not shown) [Example 142] | < 500 nM | < 500 nM | –
21 | CCCC1(CC(=O)O)OCCc2c1[nH]c1c(C)c(OCc3ccon3)cc(C#N)c21 (stereo not shown) [Example 124] | < 500 nM | < 500 nM | –
22 | CCCC1(CC(=O)O)OCCc2c1[nH]c1c(C)c(O[C@H]3CCOC3)cc(C#N)c21 (stereo partly shown) [Example 40] | < 500 nM | < 500 nM | –
23 | CCCC1(CC(=O)O)OCCc2c1[nH]c1c(C)c(OCCOCCOC)cc(C#N)c21 (stereo not shown) [Example 115] | < 500 nM | – | < 500 nM
24 | CCCC1(CC(=O)O)OCCc2c1[nH]c1c(C)c(OCCOC)cc(C#N)c21 (stereo not shown) [Example 43] | < 500 nM | < 500 nM | –

Row | Compound | IC50 [1] | IC50 [2] | IC50 [2, 3]
25 | CCCC1(CC(=O)O)OCCc2c1[nH]c1c(C)c(OCOC)cc(C#N)c21 (stereo not shown) [Example 113] | < 500 nM | < 500 nM | –
26 | CCCC1(CC(=O)O)OCCc2c1[nH]c1c(C)c(OCc3cc(CC)n(CC)n3)cc(C#N)c21 (stereo not shown) [Example 138] | < 500 nM | – | < 500 nM
27 | CCCC1(CC(=O)O)OCCc2c1[nH]c1c(C)c(OCc3ccn(C)n3)cc(C#N)c21 (stereo not shown) [Example 82] | < 500 nM | < 500 nM | –
28 | CCC[C@]1(CC(=O)O)OCCc2c1[nH]c1c(C)c(OCCOC)cc(C#N)c21 [Example 44] | < 500 nM | < 500 nM | –
29 | CCCC1(CC(=O)O)OCCc2c1[nH]c1c(C)c(OCC(C)O)cc(C#N)c21 (stereo not shown) [Example 102] | < 500 nM | < 500 nM | –
30 | CCCC1(CC(=O)O)OCCc2c1[nH]c1c(C)c(OCC(C)=NOC)cc(C#N)c21 (stereo not shown) [Example 100] | < 500 nM | < 500 nM | –
31 | CCCC1(C(=O)O)OCCc2c1[nH]c1c(C)c(OCc3cc(C)on3)cc(C#N)c21 (stereo not shown) [Example 32, 5-Cyano-8-methyl-7-(5-methyl-isoxazol-3-ylmethoxy)-1-propyl-1,3,4,9-tetrahydro-pyrano[3,4,-b]indole-1-carboxylic acid] | < 500 nM | < 500 nM | –
32 | CC[C@H](C)C1(CC(=O)O)OCCc2c1[nH]c1c(C)c(OCc3nsc(N(C)C)n3)cc(C#N)c21 (mixture of isomers) [Example 35, (1R*,10S)-[1-sec-Butyl-5-cyano-7-(5-dimethylamino-[1,2,4]thiadiazol-3-ylmethoxy)-8-methyl-1,3,4,9-tetrahydro-pyrano[3,4-b]indol-1-yl]-acetic acid] | < 500 nM | < 500 nM | –
33 | CCCC1(CC(=O)O)OCCc2c1[nH]c1c(C)c(OCC3CCOCC3)cc(C#N)c21 (stereo not shown) [Example 108] | < 500 nM | – | < 500 nM
34 | CCCC1(CC(=O)O)OCCc2c1[nH]c1c(C)c(OCc3cc(C4CC4)on3)cc(C#N)c21 (stereo not shown) [Example 127] | < 500 nM | – | < 500 nM
35 | CCCC1(CC(=O)O)OCCc2c1[nH]c1c(C)c(OCc3cc(C)no3)cc(C#N)c21 (stereo not shown) [Example 79] | < 500 nM | < 500 nM | –
36 | CCCC1(CC(=O)O)OCCc2c1[nH]c1c(C)c(OCc3cnccn3)cc(C#N)c21 (stereo not shown) [Example 64] | < 500 nM | < 500 nM | –
37 | CCCC1(CC(=O)O)OCCc2c1[nH]c1c(C)c(OCCOC(C)C)cc(C#N)c21 (stereo not shown) [Example 112] | < 500 nM | < 500 nM | –
38 | CCCC1(CC(=O)O)OCCc2c1[nH]c1c(C)c(OC[C@H]3CCC(=O)N3)cc(C#N)c21 (stereo partly shown) [Example 101] | < 500 nM | < 500 nM | –
39 | CCCC1(CC(=O)O)OCCc2c1[nH]c1c(C)c(OCc3c(C)noc3C)cc(C#N)c21 (stereo not shown) [Example 80] | < 500 nM | < 500 nM | –
40 | CCCC1(CC(=O)O)OCCc2c1[nH]c1c(C)c(OCc3cc(C)nn3C)cc(C#N)c21 (stereo not shown) [Example 66] | < 500 nM | < 500 nM | –
41 | CC#CCOCc1cc(C#N)c2c3c([nH]c2c1C)C(CCC)(CC(=O)O)OCC3 (stereo not shown) [Example 11, (7-But-2-ynyloxymethyl-5-cyano-8-methyl-1-propyl-1,3,4,9-tetrahydro-pyrano[3,4-b]indol-1-yl)-acetic acid] | 500 to 5000 nM | 500 to 5000 nM | –
42 | CCC[C@]1(CC(=O)O)OCCc2c1[nH]c1c(C)c(OCc3conc3C)cc(C#N)c21 [Example 125] | < 500 nM | < 500 nM | –
43 | CCCC1(CC(=O)O)OCCc2c1[nH]c1c(C)c(COCC3CCCC3)cc(C#N)c21 (stereo not shown) [Example 10, (5-Cyano-7-cyclopentylmethoxymethyl-8-methyl-1-propyl-1,3,4,9-tetrahydro-pyrano[3,4-b]indol-1-yl)-acetic acid] | 500 to 5000 nM | 500 to 5000 nM | –
44 | CCCC1(CC(=O)O)OCCc2c1[nH]c1c(C)c(COCc3ccc4c(c3)OCO4)cc(C#N)c21 (stereo not shown) [Example 16, [7-(Benzo[1,3]dioxol-5-ylmethoxymethyl)-5-cyano-8-methyl-1-propyl-1,3,4,9-tetrahydro-pyrano[3,4-b]indol-1-yl]-acetic acid] | 500 to 5000 nM | < 500 nM | –
45 | CCCC1(CC(=O)O)OCCc2c1[nH]c1c(C)c(OCc3nccn3C)cc(C#N)c21 (stereo not shown) [Example 110] | < 500 nM | < 500 nM | –
46 | CCCC1(CC(=O)O)OCCc2c1[nH]c1c(C)c(OCc3ccnc(N)c3)cc(C#N)c21 (stereo not shown) [Example 54] | < 500 nM | < 500 nM | –
47 | CCCC1(CC(=O)O)OCCc2c1[nH]c1c(C)c(COCc3ccsc3)cc(C#N)c21 (stereo not shown) [Example 18, [5-Cyano-8-methyl-1-propyl-7-(thiophen-3-ylmethoxymethyl)-1,3,4,9-tetrahydro-pyrano[3,4-b]indol-1-yl]-acetic acid] | 500 to 5000 nM | < 500 nM | –
